The target of the assay is T1, N190A/S15V-hP2X3R (Homo sapiens, UniProt P56373, N190A/S15V).
T1 construct: expressed in transfected cells; host or cells: Xenopus laevis oocytes (cRNA injection)
T1 sequence (P56373 1-397 S15V/N190A): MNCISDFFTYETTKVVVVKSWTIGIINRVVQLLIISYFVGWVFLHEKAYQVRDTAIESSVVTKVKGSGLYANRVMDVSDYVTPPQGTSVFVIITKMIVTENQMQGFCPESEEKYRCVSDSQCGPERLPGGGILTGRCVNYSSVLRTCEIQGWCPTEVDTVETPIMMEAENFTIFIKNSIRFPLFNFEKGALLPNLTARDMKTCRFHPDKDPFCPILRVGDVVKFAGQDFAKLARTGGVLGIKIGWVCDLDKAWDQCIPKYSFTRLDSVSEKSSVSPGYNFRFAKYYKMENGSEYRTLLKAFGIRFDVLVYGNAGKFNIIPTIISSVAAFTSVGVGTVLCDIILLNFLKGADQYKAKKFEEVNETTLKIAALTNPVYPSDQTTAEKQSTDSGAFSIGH
Description: TEVC of ATP-induced currents, N190A/S15V-hP2X3R mutant in X. laevis oocytes. The note with it: read-out: % inhibition of 10 µM ATP-induced currents by 10 µM diclofenac. The class given is cell-based. The procedure: Ion currents mediated by P2X receptors were evoked by the indicated concentration of ATP or α,β-meATP and were recorded 1 or 2 days after cRNA injection at ambient temperature at a holding potential of −60 mV by two-electrode voltage clamp (TEVC) as previously described ([Hausmann et al., 2006]). Calcium-free ORi^− solution (90 mM NaCl, 1 mM KCl, 2 mM MgCl2, 10 mM HEPES, pH 7.4) was used to avoid bias due to calcium-activated chloride channels (CaCC) endogenously expressed in X. laevis oocytes ([Miledi, 1982]; [Methfessel et al., 1986]). […]
In the case of fast-desensitizing P2XR subtypes (P2X1R and P2X3R), ATP is applied five times in repetition, and the ATP-induced current amplitude in the presence (after pre-incubation) of the antagonist (fourth application) is compared to the arithmetic mean of flanking control ATP-induced current amplitudes in the absence of the antagonist (third and fifth ATP application). […] The correction factor was calculated as the ratio of the fourth ATP-induced current amplitude to the third amplitude (Eq. 3) when the experiment was performed in the absence of the antagonist. […] Since the magnitude of the run-down varies from day to day and batch to batch of oocytes, the correction factor was determined on each day of the experiments and was calculated as the arithmetic mean of several recordings (at least 3–5 and on average 5) on each day. […]

What is called inhibition is the drop in the measured response relative to a control, in per cent. For `O=C(O)Cc1ccccc1Nc1c(Cl)cccc1Cl` [Diclofenac, diclofenac], the inhibition at 10 µM came out at 8.1%.
